Test results from US5112739A, “Enzyme controlled release system” (Polaroid Corporation, priority 1988, dated 1992).

Tests used:
Assay type in all cases: biochemical
[1] = molecular target: β-galactosidase from e. coli (Escherichia coli, UniProt P00722); experiment: relative release rate of the leaving group on cleavage by β-galactosidase, spectrophotometric; details: for APPROXIMATE RELATIVE RATE (release of leaving group, compared with ONPG): 5 × 10^-5 M compound, pH7 tris buffer, 0.01 M NaCl, 0.01 M MgCl2, 25° C., 1.5 IU β-galactosidase, ONPG = 1.0; for release rate, comparison in words: same test as the relative rate table, β-galactosidase from e. coli
Method: The approximate relative release rates of the leaving groups of compounds according to the invention compared with that of o-nitrophenolgalactoside (ONPG) were measured according to the following procedure: a 5 × 10^-5 M solution of the compound was formed in pH7 tris(hydroxymethyl)aminomethane buffer which was 0.01 M in sodium chloride and 0.01 M in magnesium chloride at 25° C. The solution was placed in a 3 ml cuvette and 1.5 IU of β-galactosidase from e. coli introduced. The reaction mixture was monitored in a spectrophotometer at the appropriate wavelength.

[2] = system: β-galactosidase (e. coli); experiment: fluorescence rate of compound B as a function of β-galactosidase concentration (standard curve); details: 45 μl 0.614 mmolar compound + 5 μl enzyme, pH 7.6, ex 550 nm/em 580 nm, 0 and 2 minutes, average of two
[3] = system: anti α-TSH-β-galactosidase conjugate; experiment: release of dye from compound B by anti α-TSH-β-galactosidase conjugate, optical density and fluorescence; details: 100 μl of 0.3 mmolar mixture, pH 7.0 buffer, + 10 μl conjugate, 15 minutes at 37° C., enzyme 1.3 × 10^-12 molar
Method: A 0.3 :mmolar mixture of compound B in a pH 7.0 buffer (0.1 molar NaH2 PO 0.15 molar NaCl, 0.1% Zwittergent 3-14) was stirred at room temperature for 30 minutes and then filtered through a 0.22 μ filter element. The concentration of the compound was calculated by diluting the solution (1:10) to provide an optical density of between 0.39 and 0.41 at 470 nm (ε=20,000).
The solution (100 μl) was added to a microtiter plate well and the optical density was measured at 570 nm with an EIA Auto Reader, Model EL 310 from Bio Tek Instruments. The fluorescence of the same 100 μl volume of the solution was measured with a Titertek Fluoroska® from Flow Laboratories by exciting at 550 nm and reading at 580 nm.
To each of the 100 μl volumes of the solution there were added 10 μl of an anti α-TSH-β-galactosidase conjugate ([…] in β-galactosidase) and the mixtures were incubated for 15 minutes at 37° C. followed by measuring the optical density and fluorescence as described above.

β-galactosidase from e. coli, sequence (P00722 whole entry): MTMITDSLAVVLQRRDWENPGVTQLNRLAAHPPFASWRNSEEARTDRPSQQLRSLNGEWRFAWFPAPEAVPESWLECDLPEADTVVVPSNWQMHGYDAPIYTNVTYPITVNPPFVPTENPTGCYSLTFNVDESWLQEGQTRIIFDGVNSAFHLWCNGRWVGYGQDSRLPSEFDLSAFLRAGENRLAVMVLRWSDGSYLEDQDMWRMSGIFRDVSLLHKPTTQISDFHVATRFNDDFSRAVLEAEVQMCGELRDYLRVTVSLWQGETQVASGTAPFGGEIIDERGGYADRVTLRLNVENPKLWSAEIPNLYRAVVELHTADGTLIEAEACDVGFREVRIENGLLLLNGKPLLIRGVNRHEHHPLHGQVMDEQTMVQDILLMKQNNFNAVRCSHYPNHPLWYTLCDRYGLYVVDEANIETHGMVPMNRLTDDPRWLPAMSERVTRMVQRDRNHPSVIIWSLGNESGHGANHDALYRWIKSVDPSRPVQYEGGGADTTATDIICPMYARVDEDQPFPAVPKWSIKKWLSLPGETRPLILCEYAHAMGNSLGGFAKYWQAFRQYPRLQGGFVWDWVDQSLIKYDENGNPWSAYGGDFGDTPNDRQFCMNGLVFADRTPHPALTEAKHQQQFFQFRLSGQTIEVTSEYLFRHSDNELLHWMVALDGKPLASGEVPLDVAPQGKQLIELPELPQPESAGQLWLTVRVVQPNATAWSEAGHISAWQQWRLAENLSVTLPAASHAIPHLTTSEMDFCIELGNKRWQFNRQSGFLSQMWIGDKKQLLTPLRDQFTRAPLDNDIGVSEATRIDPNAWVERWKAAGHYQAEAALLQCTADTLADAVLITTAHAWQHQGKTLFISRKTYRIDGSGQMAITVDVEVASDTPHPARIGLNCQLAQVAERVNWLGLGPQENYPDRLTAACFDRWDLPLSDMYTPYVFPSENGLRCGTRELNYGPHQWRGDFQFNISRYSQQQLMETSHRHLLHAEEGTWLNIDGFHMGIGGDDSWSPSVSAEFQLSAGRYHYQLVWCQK

Structure (SMILES) | APPROXIMATE RELATIVE RATE (release of leaving group, compared with ONPG) [1] | release rate, comparison in words [1] | further results
O=c1ccc2nc3ccc(OCc4ccc(O[C@@H]5O[C@H](CO)[C@H](O)[C@H](O)[C@H]5O)c([N+](=O)[O-])c4)cc3oc-2c1 [A] | 0.25 | significantly different release rates | –
Cc1cc(=O)c(C(=O)N2CCOCC2)c2oc3c(C(=O)N4CCOCC4)c(OCc4ccc(O[C@@H]5O[C@H](CO)[C@H](O)[C@H](O)[C@H]5O)c([N+](=O)[O-])c4)cc(C)c3nc1-2 [B] | 0.3 | – | change in voltage/minute (fluorescence) ([2]; Enzyme Conc. 1 × 10^-11): 2.161 V/min; change in voltage/minute (fluorescence) ([2]; Enzyme Conc. 1 × 10^-12): 0.247 V/min; change in voltage/minute (fluorescence) ([2]; Enzyme Conc. 1 × 10^-13): 0.035 V/min; change in voltage/minute (fluorescence) ([2]; Enzyme Conc. 3 × 10^-12): 0.734 V/min; change in voltage/minute (fluorescence) ([2]; Enzyme Conc. 3 × 10^-13): 0.078 V/min; change in optical density ([3]; 570 nm): 0.0594; change in fluorescence ([3]; excitation 550 nm, reading 580 nm): 7266 mV
O=c1ccc2nc3ccc(OCc4cc([N+](=O)[O-])ccc4O[C@@H]4O[C@H](CO)[C@H](O)[C@H](O)[C@H]4O)cc3oc-2c1 [C] | 0.005-0.05 | significantly different release rates | –
O=C(c1cc(O[C@@H]2O[C@H](CO)[C@H](O)[C@H](O)[C@H]2O)c([N+](=O)[O-])cc1COc1ccc2nc3ccc(=O)cc-3oc2c1)N1CCOCC1 [D] | 0.02 | much slower release rate | –
O=C(c1cc2ccc(OCc3ccc(O[C@@H]4O[C@H](CO)[C@H](O)[C@H](O)[C@H]4O)c([N+](=O)[O-])c3)cc2oc1=O)N1CCOCC1 [E] | 0.1-0.5 | – | –
O=[N+]([O-])c1ccccc1O[C@@H]1O[C@H](CO)[C@H](O)[C@H](O)[C@H]1O [ONPG, o-nitrophenolgalactoside, reference compound] | 1.0 | – | –
